# Patent publication US20230357179A1, “RAF KINASE INHIBITORS AND METHODS OF USE THEREOF” (Deciphera Pharmaceuticals, LLC, priority 2021, published 2023)
# Key:
# Format in all cases: cell-based
# [1] = system: Miapaca-2 cells; test: MiaPaca-2 combination cell proliferation assay (1) with cobimetinib, 96-well; settings: inhibition of cell proliferation, read-out: MiaPaca-2 Combo (1) IC50
# Procedure: MiaPaca-2 Combination Cell proliferation Assay (1)
# Miapaca-2 cells (catalog #CRL-1420) are obtained from the American Type Culture Collect (ATCC, Manassas, VA). Briefly, cells were grown in DMEM supplemented with 10% characterized fetal bovine serum (Invitrogen, Carlsbad, CA), 2.5% New Zealand sourced horse serum and 1% Penicillin/Streptomycin/L-Glutamine at 37° C., 5% CO2, and 95% humidity. Cells are expanded until reaching 70-95% confluency at which point they are subcultured or harvested for assay use. A serial dilution of test compound was dispensed into multiple 96-well black clear bottom plates in triplicate. A serial dilution of complete growth medium containing cobimetinib was prepared at twice the final concentration and 100 μL was dispensed across the test compound titration in triplicate. Three thousand cells are added per well in 100 μL complete growth medium in each 96-well plate. Plates are incubated for 67-72 hours at 37° C., 5% CO2, and 95% humidity. At the end of the incubation, 40 μL of a 440 μM solution of resazurin (Sigma, St. Louis, MO) in PBS is added to each well of the plate and plates are incubated for an additional 5-7 hours at 37° C., 5% CO2, and 95% humidity. Plates are read on a Synergy2 or equivalent reader (Biotek, Winooski VT) using an excitation of 540 nm and an emission of 600 nm. Drug synergy was assessed via BLISS analysis in the Combenefit software (Cancer Research UK Cambridge Institute, Cambridge, UK). Data is analyzed using Prism software (GraphPad, San Diego, CA) to calculate IC50 values. Shifts in test compound IC50 values are reported from top-constrained combination therapy curves.
# [2] = system: A375 cells; test: A375 cell proliferation assay (2), resazurin, 384-well; settings: Homo sapiens, A-375, inhibition of cell proliferation, 67-72 h
# Procedure: A375 Cell Proliferation Assay (2)
# A375 cells (catalog (#CRL-1619) are obtained from the American Type Culture Collect (ATTC, Manassas, VA). Briefly, cells were grown in DMEM High Glucose supplemented with 10% characterized fetal bovine serum (Invitrogen, Carlsbad, CA) and 1% Penicillin/Streptomycin/L-Glutamine at 37° C., 5% CO2, and 95% humidity. Cells are expanded until reaching 70-95% confluency at which point they are sub-cultured or harvested for assay use. Using the Beckman Coulter Echo 650, a serial dilution of test compound is dispensed into a 384-well black clear bottom plate in triplicate. Six hundred twenty-five cells are added per well in 50 μL complete growth medium in the 384-well plate. Plates are incubated for 67-72 h at 37° C., 5% CO2, and 95% humidity. At the end of the incubation, 10 μL of a 440 μM solution of resazurin (Sigma, St. Louis, MO) in PBS is added to each well of the plate and plates are incubated for an additional 3-6 h at 37° C., 5% CO2, and 95% humidity. Plates are read on a Synergy2 or equivalent reader (Biotek, Winooski VT) using an excitation of 540 nm and an emission of 600 nm. Data is analyzed using Prism software (GraphPad, San Diego, CA) to calculate IC50 values.
# [3] = system: H2405 cells; test: H2405 cell proliferation assay (2), resazurin, 384-well; settings: Homo sapiens, NCI-H2405, inhibition of cell proliferation, 67-72 h
# Procedure: H2405 Cell Proliferation Assay (2)
# H2405 cells (catalog #CRL-5994) are obtained from the American Type Culture Collect (ATTC, Manassas, VA). Briefly, cells were grown in RPMI 1640 supplemented with 5% characterized fetal bovine serum (Invitrogen, Carlsbad, CA) and 1% Penicillin/Streptomycin/L-Glutamine at 37° C., 5% CO2, and 95% humidity. Cells are expanded until reaching 70-95% confluency at which point they are sub-cultured or harvested for assay use. A serial dilution of test compound is dispensed into a 384-well black clear bottom plate in triplicate. Seven hundred fifty cells are added per well in 50 μL complete growth medium in the 384-well plate. Plates are incubated for 67-72 h at 37° C., 5% CO2, and 95% humidity. At the end of the incubation, 10 μL of a 440 μM solution of resazurin (Sigma, St. Louis, MO) in PBS is added to each well of the plate and plates are incubated for an additional 5-6 h at 37° C., 5% CO2, and 95% humidity. Plates are read on a Synergy2 or equivalent reader (Biotek, Winooski VT) using an excitation of 540 nm and an emission of 600 nm. Data is analyzed using Prism software (GraphPad, San Diego, CA) to calculate IC50 values
# [4] = system: WM3629 cells; test: WM3629 cell proliferation assay (1), resazurin, 96-well; settings: inhibition of cell proliferation
# Procedure: WM3629 Cell Proliferation Assay (1)
# WM3629 cells (#WM3629-01-0001) are obtained from Rockland Immunochemicals Inc (Gilbertsville, PA). Briefly, cells were grown in MCDB 153 medium (Sigma, #M7403, St. Louis, MO) supplemented with 20% Leibovitz's L-15 (ThermoFisher #11415-064, Waltham, MA), 2% heat inactivated fetal bovine serum (ThermoFisher, #A3840001, Waltham, MA), 5 μg/mL Insulin (Bovine Pancreas) (Sigma, #I0516, St. Louis, MO), 1.68 mM Calcium Chloride (Sigma, #C-34006, St. Louis, MO) and 1% Penicillin/Streptomycin/L-Glutamine (ThermoFisher #10378016, Waltham, MA) at 37° C., 5% CO2, and 95% humidity. Cells are expanded until reaching 70-95% confluency at which point they are subcultured or harvested for assay use. A serial dilution of test compound is dispensed into a 96-well black clear bottom plate in triplicate. Four thousand five hundred cells are added per well in 200 μL complete growth medium in the 96-well plate. Plates are incubated for 67-72 hours at 37° C., 5% CO2, and 95% humidity. At the end of the incubation, 40 μL of a 440 μM solution of resazurin (Sigma, #199303, St. Louis, MO) in PBS is added to each well of the plate and plates are incubated for an additional 6-7 hours at 37° C., 5% CO2, and 95% humidity. Plates are read on a Synergy2 or equivalent reader (Biotek, Winooski VT) using an excitation of 540 nm and an emission of 600 nm. Data is analyzed using Prism software (GraphPad, San Diego, CA) to calculate IC50 values.
Compound,IC50 [1] [nM],IC50 [4] [nM],also measured
Cc1cc(F)c(NC(=O)NCCC2(C(F)(F)F)CC2)cc1-c1cc(OCCO)nc(C2CCOCC2)c1 [Example 24],≤ 100,–,–
CC(=O)Nc1cc(-c2cc(-c3cc(NC(=O)NCCC4(C)CC4)c(F)cc3C)cc(OCCO)n2)ccn1 [Example 33],≤ 100,–,–
CC(=O)Nc1cc(-c2cc(-c3cc(NC(=O)NCCC4(C)CC4)c(F)cc3C)cc(C)n2)ccn1 [Example 55],≤ 100,–,–
CC(=O)Nc1cc(-c2cc(-c3cc(NC(=O)NC4CCC(F)(F)CC4)c(F)cc3C)cc(OCCO)n2)ccn1 [Example 63],≤ 100,–,–
Cc1cc(F)c(NC(=O)NCCC2(C)CC2)cc1-c1cc(OCCO)nc(-c2ccnc(NC(=O)C3CC3)c2)c1 [Example 76],100 to 500,–,–
Cc1ccc(NC(=O)N2CC[C@H](C(F)(F)F)C2)cc1-c1cncc(-c2cc(NC(=O)C3CC3)ncn2)c1 [Example 195],–,–,IC50 [2]: 100 to 500 nM; IC50 [3]: ≤ 100 nM
Cc1ccc(NC(=O)N2CC[C@H](C(F)(F)F)C2)cc1-c1cccc(-c2cc(NC(=O)C3CC3)ncn2)c1 [Example 200],100 to 500,≤ 100,–
Cc1ccc(NC(=O)N2CC[C@@H](C(F)(F)F)C2)cc1-c1cccc(-c2cc(NC(=O)C3CC3)ncn2)c1 [Example 201],100 to 500,≤ 100,–
Cc1cc(F)c(NC(=O)N2CC[C@H](C(F)(F)F)C2)cc1-c1cncc(-c2cc(NC(=O)C3CC3)ncn2)c1 [Example 216],–,–,IC50 [2]: 100 to 500 nM; IC50 [3]: ≤ 100 nM
Cc1ccc(NC(=O)N2CC[C@@H](C(C)C)C2)cc1-c1cncc(-c2cc(NC(=O)C3CC3)ncn2)c1 [Example 217],–,≤ 100,–
Cc1ccc(NC(=O)N2CC[C@H](C(C)C)C2)cc1-c1cncc(-c2cc(NC(=O)C3CC3)ncn2)c1 [Example 221],–,≤ 100,–
